Experimental data taken from PubChem BioAssay AID330 (DTP/NCI, 2004).
Several values for one entry are separate records, joined by “and”; a condition that tells them apart may be missing. Equal values may be shown once. Toxic doses and inconclusive results are not listed. The calls were made as follows: active = survival T/C of 150% or more; inactive = T/C below 125% in these data.

Tested on: P388 leukemia ip, CD2F1 mice, survival T/C
Assay: NCI In Vivo Anticancer Drug Screen. Data for tumor model P388 Leukemia (intraperitoneal) in CD2F1 (CDF1) mice
Details: endpoint: median survival time, higher = longer survival
Procedure, shortened: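 Mice carrying the transplanted tumor received test compound or vehicle. Survival was recorded in each group, and the value is the treated-group measurement divided by that of the vehicle-treated control group.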

[1] = dose: 60.0 mg/kg/injection, schedule: Q01DX005 (ip), vehicle: Klucel (hydroxypropylcellulose) (HPC)
[2] = dose: 120.0 mg/kg/injection, schedule: Q01DX005 (ip), vehicle: Klucel (hydroxypropylcellulose) (HPC)
[3] = dose: 240.0 mg/kg/injection, schedule: Q01DX005 (ip), vehicle: Klucel (hydroxypropylcellulose) (HPC)
[4] = dose: 60.0 mg/kg/injection, schedule: Q01DX005 (ip), vehicle: saline with Tween-80
[5] = dose: 240.0 mg/kg/injection, schedule: Q01DX005 (ip), vehicle: saline with Tween-80
[6] = dose: 50.0 mg/kg/injection, schedule: Q01DX005 (ip), vehicle: saline with Tween-80
[7] = dose: 100.0 mg/kg/injection, schedule: Q01DX005 (ip), vehicle: saline with Tween-80
[8] = dose: 200.0 mg/kg/injection, schedule: Q01DX005 (ip), vehicle: saline with Tween-80
[9] = dose: 50.0 mg/kg/injection, schedule: Q01DX009 (ip), vehicle: Klucel (hydroxypropylcellulose) (HPC)
[10] = dose: 100.0 mg/kg/injection, schedule: Q01DX009 (ip), vehicle: Klucel (hydroxypropylcellulose) (HPC)
[11] = dose: 200.0 mg/kg/injection, schedule: Q01DX009 (ip), vehicle: Klucel (hydroxypropylcellulose) (HPC)

Measured: T/C

CC1=C(C)/C(=C/c2ccccn2)NC1=O
inactive: [1] 98 % of control | [2] 105 % of control | [3] 98 % of control

Cc1ccc(O)c(C(c2cc(C)ccc2O)c2ccccc2Cl)c1
inactive: dose: 50.0 mg/kg/injection, schedule: Q01DX009 (ip), vehicle: saline with Tween-80 108 % of control | dose: 100.0 mg/kg/injection, schedule: Q01DX009 (ip), vehicle: saline with Tween-80 108 % of control | dose: 200.0 mg/kg/injection, schedule: Q01DX009 (ip), vehicle: saline with Tween-80 103 % of control

C1CCCN(N2CCOCC2)CC1
inactive: dose: 100.0 mg/kg/injection, schedule: Q01DX001 (ip), vehicle: saline 104 % of control | dose: 200.0 mg/kg/injection, schedule: Q01DX001 (ip), vehicle: saline 98 % of control | dose: 400.0 mg/kg/injection, schedule: Q01DX001 (ip), vehicle: saline 101 % of control

O=c1c(CO)c(-c2ccccc2)oc2ccccc12
inactive: dose: 100.0 mg/kg/injection, schedule: Q04DX002 (ip), vehicle: Klucel (hydroxypropylcellulose) (HPC) 115 % of control | dose: 200.0 mg/kg/injection, schedule: Q04DX002 (ip), vehicle: Klucel (hydroxypropylcellulose) (HPC) 98 % of control | dose: 400.0 mg/kg/injection, schedule: Q04DX002 (ip), vehicle: Klucel (hydroxypropylcellulose) (HPC) 101 % of control

O=C(NC(=S)Nc1cccc2c(O)cccc12)c1cccc(Br)c1
inactive: dose: 15.0 mg/kg/injection, schedule: Q01DX005 (ip), vehicle: saline with Tween-80 91 % of control | dose: 30.0 mg/kg/injection, schedule: Q01DX005 (ip), vehicle: saline with Tween-80 89 % of control | [4] 91 % of control | [5] 90 % of control and 94 % of control

COC1=C(OC)C(=O)C(N(C)C)=C(CO)C1=O
inactive: dose: 30.0 mg/kg/injection, schedule: Q01DX005 (ip), vehicle: saline 105 % of control | dose: 60.0 mg/kg/injection, schedule: Q01DX005 (ip), vehicle: saline 103 % of control and 108 % of control | dose: 120.0 mg/kg/injection, schedule: Q01DX005 (ip), vehicle: saline 117 % of control and 120 % of control

Cc1nc2c([N+](=O)[O-])c(N(C)C)c([N+](=O)[O-])cc2[nH]1
inactive: dose: 25.0 mg/kg/injection, schedule: Q04DX003 (ip), vehicle: saline with Tween-80 96 % of control | dose: 50.0 mg/kg/injection, schedule: Q04DX003 (ip), vehicle: saline with Tween-80 87 % of control

OCc1ccc(Cl)cc1O
inactive: dose: 12.5 mg/kg/injection, schedule: Q01DX009 (ip), vehicle: distilled water + Tween-80 100 % of control | dose: 25.0 mg/kg/injection, schedule: Q01DX009 (ip), vehicle: distilled water + Tween-80 100 % of control | dose: 50.0 mg/kg/injection, schedule: Q01DX009 (ip), vehicle: distilled water + Tween-80 105 % of control | dose: 100.0 mg/kg/injection, schedule: Q01DX009 (ip), vehicle: distilled water + Tween-80 107 % of control | dose: 200.0 mg/kg/injection, schedule: Q01DX009 (ip), vehicle: distilled water + Tween-80 116 % of control

CCCCN=Cc1c(OC(C)=O)c(OC(C)=O)c(C(C)C)c2cc(C)c(-c3c(C)cc4c(C(C)C)c(OC(C)=O)c(OC(C)=O)c(C=NCCCC)c4c3OC(C)=O)c(OC(C)=O)c12
inactive: dose: 6.25 mg/kg/injection, schedule: Q01DX005 (ip), vehicle: Klucel (hydroxypropylcellulose) (HPC) 95 % of control | dose: 12.5 mg/kg/injection, schedule: Q01DX005 (ip), vehicle: Klucel (hydroxypropylcellulose) (HPC) 98 % of control | dose: 25.0 mg/kg/injection, schedule: Q01DX005 (ip), vehicle: Klucel (hydroxypropylcellulose) (HPC) 97 % of control

O=C(COc1ccccc1)OC(=O)COc1ccccc1
inactive: dose: 25.0 mg/kg/injection, schedule: Q01DX009 (ip), vehicle: other 109 % of control | dose: 50.0 mg/kg/injection, schedule: Q01DX009 (ip), vehicle: other 100 % of control | dose: 100.0 mg/kg/injection, schedule: Q01DX009 (ip), vehicle: other 93 % of control | dose: 200.0 mg/kg/injection, schedule: Q01DX009 (ip), vehicle: other 98 % of control

O=C(CCCl)Nc1ccccc1C(=O)CCc1cn(C(=O)CCCl)c2ccccc12
inactive: [4] 107 % of control | dose: 120.0 mg/kg/injection, schedule: Q01DX005 (ip), vehicle: saline with Tween-80 102 % of control | [5] 96 % of control

CCCC1C(CC)C=C(CC)C(O)C1(CC)CO (configuration not stated)
inactive: [6] 97 % of control | [7] 97 % of control | [8] 97 % of control

CC(Sc1ccccn1)C(=O)c1ccccc1 (configuration not stated)
inactive: [6] 102 % of control | [7] 109 % of control | [8] 102 % of control

C/C(=N\NC(=S)N1CCCCCC1)c1ccccn1
inactive: dose: 0.78 mg/kg/injection, schedule: Q01DX009 (ip), vehicle: saline with Tween-80 99 % of control and 96 % of control | dose: 1.56 mg/kg/injection, schedule: Q01DX009 (ip), vehicle: saline with Tween-80 99 % of control and 103 % of control | dose: 3.12 mg/kg/injection, schedule: Q01DX009 (ip), vehicle: saline with Tween-80 90 % of control | dose: 3.13 mg/kg/injection, schedule: Q01DX009 (ip), vehicle: saline with Tween-80 121 % of control and 95 % of control | dose: 6.25 mg/kg/injection, schedule: Q01DX009 (ip), vehicle: saline with Tween-80 100 % of control and 112 % of control and 117 % of control | dose: 12.5 mg/kg/injection, schedule: Q01DX009 (ip), vehicle: saline with Tween-80 103 % of control

Cc1ccc(S(=O)(=O)N/N=C/c2ccc(Cl)cc2)cc1
inactive: dose: 12.5 mg/kg/injection, schedule: Q01DX005 (ip), vehicle: saline with Tween-80 102 % of control | dose: 25.0 mg/kg/injection, schedule: Q01DX005 (ip), vehicle: saline with Tween-80 104 % of control and 108 % of control | [6] 100 % of control and 106 % of control and 107 % of control | [8] 121 % of control

CCN(CC)CCNc1cc2c(c3sc4ccccc4c(=O)c13)CCCC2
inactive: dose: 7.8 mg/kg/injection, schedule: Q01DX005 (ip), vehicle: other 113 % of control | dose: 15.6 mg/kg/injection, schedule: Q01DX005 (ip), vehicle: other 110 % of control | dose: 31.3 mg/kg/injection, schedule: Q01DX005 (ip), vehicle: other 113 % of control | dose: 62.5 mg/kg/injection, schedule: Q01DX005 (ip), vehicle: other 101 % of control | dose: 125.0 mg/kg/injection, schedule: Q01DX005 (ip), vehicle: other 104 % of control

O=C1CC2(CCCC2)C(=O)N1c1ccccc1O
inactive: dose: 25.0 mg/kg/injection, schedule: Q01DX009 (ip), vehicle: saline 103 % of control | [9] 118 % of control and 94 % of control | dose: 50.0 mg/kg/injection, schedule: Q01DX009 (ip), vehicle: saline 96 % of control | [10] 100 % of control | dose: 100.0 mg/kg/injection, schedule: Q01DX009 (ip), vehicle: saline 96 % of control | [11] 100 % of control | dose: 200.0 mg/kg/injection, schedule: Q01DX009 (ip), vehicle: saline 96 % of control

CCOC(CSCC#N)OCC
inactive: dose: 12.5 mg/kg/injection, schedule: Q01DX009 (ip), vehicle: saline sonified 100 % of control | dose: 25.0 mg/kg/injection, schedule: Q01DX009 (ip), vehicle: saline sonified 95 % of control | dose: 50.0 mg/kg/injection, schedule: Q01DX009 (ip), vehicle: saline sonified 100 % of control

CCCCOP(O)(=S)OCCCC.[Ti]
inactive: [10] 96 % of control | [11] 96 % of control | dose: 400.0 mg/kg/injection, schedule: Q01DX009 (ip), vehicle: Klucel (hydroxypropylcellulose) (HPC) 95 % of control

CC(Oc1ccc(Oc2ccc(Cl)cc2)cc1)C(=O)O (configuration not stated)
inactive: [9] 102 % of control | [10] 90 % of control | [11] 89 % of control

CN1C(=O)C(CC(N)=O)NC1=S (configuration not stated)
inactive: [1] 95 % of control | [2] 86 % of control | [3] 93 % of control

CN(C)CC(C)(CN(C)C)C(=O)/C=C/c1ccc(Cl)c(Cl)c1
inactive: dose: 1.88 mg/kg/injection, schedule: Q01DX005 (ip), vehicle: saline with Tween-80 118 % of control | dose: 3.75 mg/kg/injection, schedule: Q01DX005 (ip), vehicle: saline with Tween-80 110 % of control | dose: 7.5 mg/kg/injection, schedule: Q01DX005 (ip), vehicle: saline with Tween-80 102 % of control and 110 % of control

COc1cc(C(=O)NN=C(C)C)cc(OC)c1OC
inactive: dose: 50.0 mg/kg/injection, schedule: Q01DX005 (ip), vehicle: Klucel (hydroxypropylcellulose) (HPC) 101 % of control | dose: 100.0 mg/kg/injection, schedule: Q01DX005 (ip), vehicle: Klucel (hydroxypropylcellulose) (HPC) 104 % of control | dose: 200.0 mg/kg/injection, schedule: Q01DX005 (ip), vehicle: Klucel (hydroxypropylcellulose) (HPC) 101 % of control
